Reference: patent publication US20130158066A1, “4-AZAINDOLE INHIBITORS OF CRAC” (Hoffmann-La Roche Inc., priority 2011, published 2013)

Tested on: IL-2 production in Jurkat cell
Assay: Jurkat IL-2 Production Assay
Type: cell-based
Conditions: Homo sapiens, Jurkat cell (ATCC), 18-20 h incubation, serum/stimulant condition (1% FBS/PHA or 30% FBS/PMA-ionomycin) not given
Description: Jurkat IL-2 Production Assay
Jurkat cell (ATCC) was grown in RPMI 1640 with 10% FBS and 1% penicillin/streptomycin. The cell density was kept at 1.2˜1.8×10^6/mL in culture flask before seeding into culture plate, and the cell density in the plate was 0.5×10^6/[…]/well.
RPMI 1640 with 1% FBS or 30% FBS for high serum assay.
serial dilution was done in 100% DMSO, and intermediate dilution was done with RPMI 1640 medium with 1% FBS. The DMSO final concentration in culture well was 0.25%.
PHA (Sigma#L9017-10MG) was used for the assay with 1% FBS in culture medium, and added after 10 minutes exposure of cell to compound/DMSO. The PHA final concentration in culture well was 5 μg/mL. PMA (Sigma# P-8139 5MG)/Ionomycin (Sigma# I0634-5MG) was used for the assay with 30% FBS in culture medium, and added at same time point as the 1% FBS culture assay. The final concentration of PMA was 50 ng/mL, and Ionomycin final concentration was 500 ng/mL.
at 37° C. with 5% CO2 and 95% humidity for 18 h ˜20 h.
IC50 was calculated with the data analysis software XLfit4, General Pharmacology model 251.

| IC50 | Structure (SMILES) |
| --- | --- |
| 246 nM | Cc1cc(Cl)ncc1-c1ccc2[nH]c(-c3c(F)cccc3Cl)cc2n1 [Example 2, 2-(2-Chloro-6-fluoro-phenyl)-5-(6-chloro-4-methyl-pyridin-3-yl)-1H-pyrrolo[3,2b]pyridine] |
| 94 nM | Cn1nc(C(F)(F)F)cc1-c1ccc2[nH]c(-c3c(F)cccc3Cl)cc2n1 [Example 3, 2-(2-Chloro-6-fluoro-phenyl)-5-(2-methyl-5-trifluoromethyl-2H-pyrazol-3-yl)-1H-pyrrolo[3,2-b]pyridine] |
| 80 nM | Cc1cc(C(F)(F)F)ccc1-c1ccc2[nH]c(-c3c(F)cccc3Cl)cc2n1 [Example 4, 2-(2-chloro-6-fluorophenyl)-5-(2-methyl-4-(trifluoromethyl)phenyl)-1H-pyrrolo[3,2-b]pyridine] |
| 347 nM | Cc1cc(C#N)ccc1-c1ccc2[nH]c(-c3c(F)cccc3Cl)cc2n1 [Example 5, 4-(2-(2-chloro-6-fluorophenyl)-1H-pyrrolo[3,2-b]pyridin-5-yl)-3-methylbenzonitrile] |
| 92 nM | Cc1cc(S(=O)(=O)N(C)C)ccc1-c1ccc2[nH]c(-c3c(F)cccc3Cl)cc2n1 [Example 6, 4-(2-(2-chloro-6-fluorophenyl)-1H-pyrrolo[3,2-b]pyridin-5-yl)-N,N,3-trimethylbenzenesulfonamide] |
| 300 nM | Cc1cc(S(=O)(=O)N(C)C)ccc1-c1ccc2[nH]c(-c3ccccc3Cl)cc2n1 [Example 7, 4-[2-(2-Chloro-phenyl)-1H-pyrrolo[3,2-b]pyridin-5-yl]-3,N,N-trimethyl-benzenesulfonamide] |
| 147 nM | Cn1nc(C(F)(F)F)cc1-c1ccc2[nH]c(-c3ccc(F)cc3Cl)cc2n1 [Example 8, 2-(2-Chloro-4-fluoro-phenyl)-5-(2-methyl-5-trifluoromethyl-2H-pyrazol-3-yl)-1H-pyrrolo[3,2-b]pyridine] |
| 98 nM | Cc1cc(S(=O)(=O)N(C)C)ccc1-c1ccc2[nH]c(-c3ccc(F)cc3Cl)cc2n1 [Example 9, 4-[2-(2-Chloro-4-fluoro-phenyl)-1H-pyrrolo[3,2-b]pyridin-5-yl]-3,N,N-trimethyl-benzenesulfonamide] |
| 134 nM | Cc1cc(S(=O)(=O)N(C)C)ccc1-c1ccc2[nH]c(-c3c(F)cccc3F)cc2n1 [Example 10, 4-[2-(2,6-Difluoro-phenyl)-1H-pyrrolo[3,2-b]pyridin-5-yl]-3,N,N-trimethyl-benzenesulfonamide] |
| 767 nM | Cc1cc(C#N)ccc1-c1ccc2[nH]c(-c3c(F)cccc3F)cc2n1 [Example 11, 4-[2-(2,6-Difluoro-phenyl)-1H-pyrrolo[3,2-b]pyridin-5-yl]-3-methyl-benzonitrile] |
| 200 nM | Cn1nc(C(F)(F)F)cc1-c1ccc2[nH]c(-c3c(F)cccc3F)cc2n1 [Example 12, 2-(2,6-Difluoro-phenyl)-5-(2-methyl-5-trifluoromethyl-2H-pyrazol-3-yl)-1H-pyrrolo[3,2-b]pyridine] |
| 169 nM | COc1cc(F)c(-c2cc3nc(-c4ccc(S(=O)(=O)N(C)C)cc4C)ccc3[nH]2)c(F)c1 [Example 13, 4-(2-(2,6-difluoro-4-methoxyphenyl)-1H-pyrrolo[3,2-b]pyridin-5-yl)-N,N,3-trimethylbenzenesulfonamide] |
